Assay results published in patent publication US12258355B2, “Probes for imaging huntingtin protein” (CHDI Foundation, Inc., priority 2014, dated 2025).

What follows are compounds tested against T1, Q46 protein aggregates (Homo sapiens, UniProt P42858) (assay: Q46 radioligand binding assay (RBA)). Settings: 10 nM ligand [3H3]MK-3328.
T1 construct: fused on or other part: GST at the N-terminus, cut off with thrombin before the test to start aggregation; The wells held aggregated Q46 without GST
Procedure, shortened: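 Aggregates from thrombin-cleaved GST-Q46 (16 h, 37° C) at 5 μM monomer-equivalent were pre-incubated 20 min at room temperature with compound (1 μM to 30 pM) in 150 mM NaCl, 50 mM Tris pH 8.0, then 60 min at 37° C with 10 nM [^3H3]MK-3328. Bound radioactivity was filtered and counted; IC50 came from a four-parameter global fit normalized to vehicle and 3 μM unlabelled MK-3328.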

T1 sequence (P42858 with tags, fused parts or gaps with the stated changes, form open): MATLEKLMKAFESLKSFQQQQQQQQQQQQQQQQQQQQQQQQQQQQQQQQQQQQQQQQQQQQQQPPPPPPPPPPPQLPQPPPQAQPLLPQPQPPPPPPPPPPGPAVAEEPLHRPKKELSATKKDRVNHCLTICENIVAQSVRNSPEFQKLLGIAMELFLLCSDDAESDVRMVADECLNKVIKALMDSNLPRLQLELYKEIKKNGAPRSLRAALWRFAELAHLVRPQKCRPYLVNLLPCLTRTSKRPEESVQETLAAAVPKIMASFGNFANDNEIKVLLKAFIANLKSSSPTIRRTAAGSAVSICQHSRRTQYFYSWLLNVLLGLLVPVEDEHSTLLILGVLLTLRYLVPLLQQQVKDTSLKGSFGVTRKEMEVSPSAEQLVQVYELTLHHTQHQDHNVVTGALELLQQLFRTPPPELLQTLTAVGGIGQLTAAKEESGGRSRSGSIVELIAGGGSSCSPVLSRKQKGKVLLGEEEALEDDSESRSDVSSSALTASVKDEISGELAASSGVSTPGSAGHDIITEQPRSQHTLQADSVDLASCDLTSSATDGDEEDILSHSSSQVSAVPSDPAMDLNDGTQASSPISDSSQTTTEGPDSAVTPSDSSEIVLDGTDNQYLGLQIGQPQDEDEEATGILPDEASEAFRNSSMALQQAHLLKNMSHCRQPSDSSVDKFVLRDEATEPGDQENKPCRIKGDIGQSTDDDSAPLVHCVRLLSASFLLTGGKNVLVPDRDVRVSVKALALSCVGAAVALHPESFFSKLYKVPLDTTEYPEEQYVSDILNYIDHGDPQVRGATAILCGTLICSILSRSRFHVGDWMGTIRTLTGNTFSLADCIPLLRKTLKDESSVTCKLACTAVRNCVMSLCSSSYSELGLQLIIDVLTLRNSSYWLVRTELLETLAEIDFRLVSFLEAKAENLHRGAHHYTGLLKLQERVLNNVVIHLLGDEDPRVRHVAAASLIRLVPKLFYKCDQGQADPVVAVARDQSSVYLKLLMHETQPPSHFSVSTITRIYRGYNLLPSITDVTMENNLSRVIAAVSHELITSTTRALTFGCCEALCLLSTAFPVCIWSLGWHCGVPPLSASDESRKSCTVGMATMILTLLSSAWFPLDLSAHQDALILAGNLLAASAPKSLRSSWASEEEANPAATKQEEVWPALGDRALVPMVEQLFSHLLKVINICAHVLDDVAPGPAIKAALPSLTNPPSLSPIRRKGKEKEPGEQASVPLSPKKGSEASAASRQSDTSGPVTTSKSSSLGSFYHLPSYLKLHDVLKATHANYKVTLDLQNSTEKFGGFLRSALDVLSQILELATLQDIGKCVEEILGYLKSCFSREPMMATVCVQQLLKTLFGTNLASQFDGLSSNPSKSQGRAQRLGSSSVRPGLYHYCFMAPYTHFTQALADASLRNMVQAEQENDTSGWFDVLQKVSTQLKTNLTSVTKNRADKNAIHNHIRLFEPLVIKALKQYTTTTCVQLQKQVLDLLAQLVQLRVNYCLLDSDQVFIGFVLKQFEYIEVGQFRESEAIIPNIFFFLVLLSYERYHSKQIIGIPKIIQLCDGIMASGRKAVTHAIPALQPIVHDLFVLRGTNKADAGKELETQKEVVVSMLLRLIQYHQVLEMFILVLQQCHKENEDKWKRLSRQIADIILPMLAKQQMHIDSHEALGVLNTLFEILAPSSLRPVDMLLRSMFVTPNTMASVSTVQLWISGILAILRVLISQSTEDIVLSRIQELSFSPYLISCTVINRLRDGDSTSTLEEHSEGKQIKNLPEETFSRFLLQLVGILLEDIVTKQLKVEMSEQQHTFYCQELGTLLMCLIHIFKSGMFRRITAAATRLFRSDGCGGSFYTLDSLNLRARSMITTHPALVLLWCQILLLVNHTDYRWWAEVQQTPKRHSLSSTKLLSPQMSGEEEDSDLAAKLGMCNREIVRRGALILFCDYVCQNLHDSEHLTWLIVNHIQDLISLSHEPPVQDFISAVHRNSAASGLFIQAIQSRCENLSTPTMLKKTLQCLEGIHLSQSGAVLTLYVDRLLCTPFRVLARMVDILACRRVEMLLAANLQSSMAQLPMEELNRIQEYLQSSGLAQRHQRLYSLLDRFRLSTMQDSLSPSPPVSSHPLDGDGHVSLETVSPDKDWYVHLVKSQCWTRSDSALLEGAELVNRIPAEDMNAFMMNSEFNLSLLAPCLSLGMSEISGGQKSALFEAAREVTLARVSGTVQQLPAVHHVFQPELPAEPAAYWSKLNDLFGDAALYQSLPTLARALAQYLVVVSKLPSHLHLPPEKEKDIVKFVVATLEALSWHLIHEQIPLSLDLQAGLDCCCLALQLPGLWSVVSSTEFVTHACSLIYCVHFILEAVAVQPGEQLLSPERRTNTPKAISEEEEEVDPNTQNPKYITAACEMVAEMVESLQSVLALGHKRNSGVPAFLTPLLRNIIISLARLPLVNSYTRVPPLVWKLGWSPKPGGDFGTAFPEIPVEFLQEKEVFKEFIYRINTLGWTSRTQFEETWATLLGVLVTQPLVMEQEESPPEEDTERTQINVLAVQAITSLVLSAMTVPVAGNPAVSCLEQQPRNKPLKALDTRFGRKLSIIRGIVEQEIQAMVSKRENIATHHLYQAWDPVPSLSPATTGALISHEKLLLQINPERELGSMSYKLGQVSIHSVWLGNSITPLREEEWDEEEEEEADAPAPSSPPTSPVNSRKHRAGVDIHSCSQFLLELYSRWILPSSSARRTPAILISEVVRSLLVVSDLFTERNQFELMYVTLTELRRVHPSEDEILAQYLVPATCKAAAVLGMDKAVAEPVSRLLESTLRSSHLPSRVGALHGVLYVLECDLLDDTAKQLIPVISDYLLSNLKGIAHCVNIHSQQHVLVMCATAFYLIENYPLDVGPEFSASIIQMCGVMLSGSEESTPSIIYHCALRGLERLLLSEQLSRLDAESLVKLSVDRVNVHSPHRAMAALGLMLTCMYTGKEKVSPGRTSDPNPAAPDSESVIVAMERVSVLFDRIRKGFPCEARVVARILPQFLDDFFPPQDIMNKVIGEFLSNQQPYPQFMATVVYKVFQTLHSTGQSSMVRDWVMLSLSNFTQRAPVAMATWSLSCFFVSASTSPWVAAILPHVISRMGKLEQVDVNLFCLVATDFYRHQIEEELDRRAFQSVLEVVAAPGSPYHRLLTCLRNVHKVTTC

Compound	IC50
Cn1cc(-c2nc3cc(OCc4ccc(O)cn4)ccc3o2)cn1 [6-({[2-(1-methyl-1H-pyrazol-4-yl)-1,3-benzoxazol-5-yl]oxy}methyl)pyridin-3-ol]	100 to 500 nM
Cn1cc(-c2ccc3oc(-c4cccnc4)nc3c2)cn1 [5-(1-methyl-1H-pyrazol-4-yl)-2-(pyridin-3-yl)-1,3-benzoxazole]	100 to 500 nM
Cc1cncc(Oc2ccc(C(=O)Nc3ccc4oc(-c5cccnc5)nc4c3)cc2)n1 [4-[(6-methylpyrazin-2-yl)oxy]-N-[2-(pyridin-3-yl)-1,3-benzoxazol-5-yl]benzamide]	< 100 nM
COc1ccc(COc2ccc3oc(-c4ccc(C(F)(F)F)nc4)nc3c2)nc1 [5-[(5-methoxypyridin-2-yl)methoxy]-2-[6-(trifluoromethyl)pyridin-3-yl]-1,3-benzoxazole]	< 100 nM
N#Cc1cnccc1-c1cc2cc(OCc3cn[nH]c3)ccc2o1 [4-[5-(1H-pyrazol-4-ylmethoxy)-1-benzofuran-2-yl]pyridine-3-carbonitrile]	< 100 nM
CNC(=O)c1ccc(-c2nc3cc(OCc4ccc(OC)cn4)ccc3o2)cn1 [5-{5-[(5-methoxypyridin-2-yl)methoxy]-1,3-benzoxazol-2-yl}-N-methylpyridine-2-carboxamide]	< 100 nM
COc1cncc(C(=O)Nc2ccc3oc(-c4ccc(=O)n(C)n4)nc3c2)c1 [5-methoxy-N-[2-(1-methyl-6-oxo-1,6-dihydropyridazin-3-yl)-1,3-benzoxazol-5-yl]pyridine-3-carboxamide]	< 100 nM
COc1ccc(COc2ccc3oc(-c4ccc(N)nc4)nc3c2)nc1 [5-{5-[(5-methoxypyridin-2-yl)methoxy]-1,3-benzoxazol-2-yl}pyridin-2-amine]	< 100 nM
N#Cc1ccncc1-c1cc2cc(OCc3cccnc3)ccc2o1 [3-[5-(pyridin-3-ylmethoxy)-1-benzofuran-2-yl]pyridine-4-carbonitrile]	< 100 nM
COc1ccc(C(C)Oc2cnc3oc(-c4cccnc4)nc3c2)nc1 (centres unmarked) [3-{6-[1-(5-methoxypyridin-2-yl)ethoxy]-[1,3]oxazolo[5,4-b]pyridin-2-yl}pyridine]	100 to 500 nM
CC(=O)Oc1ccc(C(=O)Nc2ccc3oc(-c4ccc(Cl)cc4)nc3c2)cc1 [4-{[2-(4-chlorophenyl)-1,3-benzoxazol-5-yl]carbamoyl}phenyl acetate]	< 100 nM
CNc1ccc(COc2ccc3oc(-c4cccnc4)nc3c2)nc1 [N-methyl-6-({[2-(pyridin-3-yl)-1,3-benzoxazol-5-yl]oxy}methyl)pyridin-3-amine]	< 100 nM
COc1ccc(COc2ccc3oc(N4CCc5cccnc5C4)nc3c2)nc1 [7-{5-[(5-methoxypyridin-2-yl)methoxy]-1,3-benzoxazol-2-yl}-5,6,7,8-tetrahydro-1,7-naphthyridine]	< 100 nM
COc1ccc(C(=O)Nc2ccc3oc(-c4ccncc4)nc3c2)cc1 [4-methoxy-N-[2-(pyridin-4-yl)-1,3-benzoxazol-5-yl]benzamide]	< 100 nM
c1cncc(-c2nc3cc(OCc4ccc(OCCN5CCOCC5)cn4)ccc3o2)c1 [5-({5-[2-(morpholin-4-yl)ethoxy]pyridin-2-yl}methoxy)-2-(pyridin-3-yl)-1,3-benzoxazole]	< 100 nM
COc1cnc(C(=O)Nc2ccc3oc(-c4cccc(C)c4)nc3c2)cn1 [5-methoxy-N-[2-(3-methylphenyl)-1,3-benzoxazol-5-yl]pyrazine-2-carboxamide]	< 100 nM
c1cncc(COc2ccc3nc(-c4cccnc4)oc3c2)c1 [2-(pyridin-3-yl)-6-(pyridin-3-ylmethoxy)-1,3-benzoxazole]	< 100 nM
O=C(Nc1ccc2oc(-c3cccnc3)nc2c1)c1nnc(-c2ccccc2)o1	< 100 nM
Oc1ccc(COc2ccc3oc(-c4cccnc4)nc3c2)nc1 [6-({[2-(pyridin-3-yl)-1,3-benzoxazol-5-yl]oxy}methyl)pyridin-3-ol]	< 100 nM
COc1ccc(COc2ccc3oc(-c4cn(C)cn4)nc3c2)nc1 [5-[(5-methoxypyridin-2-yl)methoxy]-2-(1-methyl-1H-imidazol-4-yl)-1,3-benzoxazole]	100 to 500 nM
COc1ccc(/C=C/C(=O)Nc2ccc3oc(-c4cccnc4)nc3c2)cc1 [(2E)-3-(4-methoxyphenyl)-N-[2-(pyridin-3-yl)-1,3-benzoxazol-5-yl]prop-2-enamide]	< 100 nM
CN(C)CCCOc1ccc(COc2ccc3oc(-c4cccnc4)nc3c2)cc1 [dimethyl({3-[4-({[2-(pyridin-3-yl)-1,3-benzoxazol-5-yl]oxy}methyl)phenoxy]propyl})amine]	< 100 nM
COc1ccc(COc2ccc3oc(-c4ccc(NC(C)=O)nc4)nc3c2)nc1 [N-(5-{5-[(5-methoxypyridin-2-yl)methoxy]-1,3-benzoxazol-2-yl}pyridin-2-yl)acetamide]	< 100 nM
COc1ccc(C(=O)Nc2ccc3oc(-c4cccnc4)nc3c2)cc1 [4-methoxy-N-[2-(pyridin-3-yl)-1,3-benzoxazol-5-yl]benzamide]	< 100 nM
Brc1ccc(COc2cnc3oc(-c4cccnc4)nc3c2)nc1 [3-{6-[(5-bromopyridin-2-yl)methoxy]-[1,3]oxazolo[5,4-b]pyridin-2-yl}pyridine]	< 100 nM
CNC(=O)c1ccc(-c2nc3cc(OCc4ccc(O)cn4)ccc3o2)cn1 [5-{5-[(5-hydroxypyridin-2-yl)methoxy]-1,3-benzoxazol-2-yl}-N-methylpyridine-2-carboxamide]	< 100 nM
COc1ccc(-c2ccc3oc(-c4cccnc4)nc3c2)nc1 [5-(5-methoxypyridin-2-yl)-2-(pyridin-3-yl)-1,3-benzoxazole]	100 to 500 nM
Cn1cc(-c2nc3cc(OCc4ccc(N)cn4)cnc3o2)cn1 [6-({[2-(1-methyl-1H-pyrazol 4-yl)-[1,3]oxazolo[5,4-b]pyridin-6-yl]oxy}methyl)pyridin-3-amine]	100 to 500 nM
COc1ccc2c(c1)CN(c1ccc3oc(-c4cccnc4)nc3c1)C2=O [5-methoxy-2-[2-(pyridin-3-yl)-1,3-benzoxazol-5-yl]-2,3-dihydro-1H-isoindol-1-one]	< 100 nM

Next, values leading:

IC50	Compound
< 100 nM	COc1cnc(COc2cnc3oc(-c4cccnc4)nc3c2)nc1 [5-methoxy-2-({[2-(pyridin-3-yl)-[1,3]oxazolo[5,4-b]pyridin-6-yl]oxy}methyl)pyrimidine]
< 100 nM	COc1ccc(COc2ccc3oc(-c4ccc(OC)cn4)nc3c2)nc1 [2-(5-methoxypyridin-2-yl)-5-[(5-methoxypyridin-2-yl)methoxy]-1,3-benzoxazole]
< 100 nM	COc1ccc(COc2cnc3oc(-c4cccnc4)nc3c2)nn1 [3-methoxy-6-({[2-(pyridin-3-yl)-[1,3]oxazolo[5,4-b]pyridin-6-yl]oxy}methyl)pyridazine]
< 100 nM	CN(C)CCn1cc(COc2ccc3oc(-c4ccncc4C#N)cc3c2)cn1 [4-[5-({1-[2-(dimethylamino)ethyl]-1H-pyrazol-4-yl}methoxy)-1-benzofuran-2-yl]pyridine-3-carbonitrile]
< 100 nM	CNC(=O)c1ccc(-c2nc3cc(OCc4ccc(OC)cn4)cnc3o2)cn1 [5-{6-[(5-methoxypyridin-2-yl)methoxy]-[1,3]oxazolo[5,4-b]pyridin-2-yl}-N-methylpyridine-2-carboxamide]
< 100 nM	Cn1nc(C(=O)Nc2ccc3oc(-c4ccc(=O)n(C)n4)nc3c2)ccc1=O [1-methyl-N-[2-(1-methyl-6-oxo-1,6-dihydropyridazin-3-yl)-1,3-benzoxazol-5-yl]-6-oxo-1,6-dihydropyridazine-3-carboxamide]
< 100 nM	COc1ccc(C(=O)Nc2ccc3oc(-c4ccc(OC)cc4)nc3c2)cc1 [4-methoxy-N-[2-(4-methoxyphenyl)-1,3-benzoxazol-5-yl]benzamide]
< 100 nM	COc1ccc(COc2ccc3oc(-c4ccc5occc5c4)nc3c2)nc1 [2-(1-benzofuran-5-yl)-5-[(5-methoxypyridin-2-yl)methoxy]-1,3-benzoxazole]
< 100 nM	COc1ccc(C(=O)Nc2cnc3oc(-c4cccc(C)c4)nc3c2)cc1 [4-methoxy-N-[2-(3-methylphenyl)[1,3]oxazolo[5,4-b]pyridin-6-yl]benzamide]
< 100 nM	COc1ccc(COc2ccc3oc(-c4ccnc(C)c4)nc3c2)nc1 [5-[(5-methoxypyridin-2-yl)methoxy]-2-(2-methylpyridin-4-yl)-1,3-benzoxazole]
< 100 nM	COc1cncc(NC(=O)c2ccc3oc(-c4cccnc4)nc3c2)c1 [N-(5-methoxypyridin-3-yl)-2-(pyridin-3-yl)-1,3-benzoxazole-5-carboxamide]
< 100 nM	COc1cnc(COc2cnc3oc(-c4cnn(C)c4)nc3c2)cn1 [2-methoxy-5-({[2-(1-methyl-1H-pyrazol-4-yl)-[1,3]oxazolo[5,4-b]pyridin-6-yl]oxy}methyl)pyrazine]
< 100 nM	Cn1nc(-c2nc3cc(OCc4ccc(O)cn4)ccc3o2)ccc1=O [6-{5-[(5-hydroxypyridin-2-yl)methoxy]-1,3-benzoxazol-2-yl}-2-methyl-2,3-dihydropyridazin-3-one]
< 100 nM	COc1ccc(COc2ccc3oc(-c4ccc5ccccc5n4)nc3c2)nc1 [2-{5-[(5-methoxypyridin-2-yl)methoxy]-1,3-benzoxazol-2-yl}quinoline]
< 100 nM	c1cncc(-c2nc3cc(Nc4ccncn4)ccc3o2)c1 [2-(pyridin-3-yl)-N-(pyrimidin-4-yl)-1,3-benzoxazol-5-amine]
< 100 nM	COc1ccc(COc2ccc3oc(-c4ccc(=O)n(C)c4)nc3c2)nc1 [5-{5-[(5-methoxypyridin-2-yl)methoxy]-1,3-benzoxazol-2-yl}-1-methyl-1,2-dihydropyridin-2-one]
< 100 nM	COc1ccc(COc2ccc3oc(-c4cn(C)c(=O)cn4)nc3c2)nc1 [5-{5-[(5-methoxypyridin-2-yl)methoxy]-1,3-benzoxazol-2-yl}-1-methyl-1,2-dihydropyrazin-2-one]
< 100 nM	COc1ccc(COc2ccc3oc(-c4cccc(OCc5ccccc5)c4)nc3c2)nc1 [2-[3-(benzyloxy)phenyl]-5-[(5-methoxypyridin-2-yl)methoxy]-1,3-benzoxazole]
